The assay concerns the target human recombinant PDE4B1 enzyme (Homo sapiens (Human), UniProt Q07343). Description: Inhibition of PDE4B1 activity by cAMP HTRF assay. Format: biochemical. To be noted: human recombinant PDE4B1, cAMP 40 nM, pH 7.4. How it is done: Determination of the inhibition of the compounds on PDE4B1 activity by using cAMP HTRF® assay
The inhibitory effect of the compounds on human PDE4B1 enzyme activity was determined by quantifying the 5′-adenosine monophosphate (5′-AMP) formed from 3′,5′-cyclic adenosine monophosphate (cAMP).
The test compound or water (control) and human recombinant PDE4B1 enzyme (4.8 U) were mixed in a buffer solution (pH 7.4) consisting of 1× Hanks' balanced salt solution (HBSS), 5 mM HEPES, 3 mM MgCl2, and 0.1% BSA and incubated for 10 min. A cAMP enzyme substrate (final concentration 40 nM) was added, and the mixture was incubated at room temperature for 60 min. Then a fluorescent acceptor (Dye2 labeled with cAMP), a fluorescent donor (anti-cAMP antibody labeled with europium cryptate) and a non-specific phosphodiesterase inhibitor IBMX (3-isobutyl-1-methyl xanthine; final concentration 1 mM) were added. After 60 min, the fluorescence transfer related to the amount of remaining cAMP was measured on a microplate reader (Rubystar, BMG) at λex=337 nm, λem=620 nm and λem=665 nm. The enzyme activity is calculated from the ratio of the signals measured at 665 nm and 620 nm. The results are expressed as percent inhibition of the enzyme activity of the control (without PDE4 inhibitor). The enzyme was omitted for measurement of the basic control. The IC50 value (IC50=the concentration that caused the half-maximum inhibition of the specific activity of the control) is derived from dose-response measurements with eight different concentrations (n=2; repeated 2 times)
human recombinant PDE4B1 enzyme, sequence (Q07343 whole entry): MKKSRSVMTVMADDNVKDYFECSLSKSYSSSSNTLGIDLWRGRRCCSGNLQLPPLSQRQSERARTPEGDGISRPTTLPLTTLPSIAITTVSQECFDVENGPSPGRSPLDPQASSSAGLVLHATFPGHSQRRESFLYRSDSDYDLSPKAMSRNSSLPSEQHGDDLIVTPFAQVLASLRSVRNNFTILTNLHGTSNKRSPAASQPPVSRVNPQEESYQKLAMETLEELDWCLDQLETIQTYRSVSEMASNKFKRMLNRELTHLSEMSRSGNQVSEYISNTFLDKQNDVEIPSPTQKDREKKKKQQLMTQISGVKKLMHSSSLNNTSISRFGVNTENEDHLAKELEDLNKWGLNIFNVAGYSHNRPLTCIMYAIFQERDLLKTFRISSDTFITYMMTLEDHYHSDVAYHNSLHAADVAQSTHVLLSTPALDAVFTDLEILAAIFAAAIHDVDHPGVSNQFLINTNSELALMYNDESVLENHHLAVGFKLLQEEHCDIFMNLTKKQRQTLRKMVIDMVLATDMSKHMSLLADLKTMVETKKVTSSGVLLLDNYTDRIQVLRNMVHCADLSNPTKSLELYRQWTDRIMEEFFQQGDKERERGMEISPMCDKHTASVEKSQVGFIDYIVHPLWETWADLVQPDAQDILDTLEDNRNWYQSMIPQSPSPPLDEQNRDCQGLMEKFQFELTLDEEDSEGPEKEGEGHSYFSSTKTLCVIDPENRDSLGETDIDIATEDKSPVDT
As to `COc1ccc(C(=O)Cn2c(C)cc(=O)cc2C)cc1OCC=C(C)C` [Example 27, 1-(2-(3-((3-methylbut-2-en-1-yl)oxy)-4-methoxyphenyl)-2-oxoethyl)-2,6-dimethylpyridin-4(1H)-one], the IC50 is 65 nM.

Take `C#CCOc1cc(C(=O)Cn2c(C)cc(=O)cc2C)ccc1OC` [Example 28, 1-(2-(3-propargyloxy-4-methoxyphenyl)-2-oxoethyl)-2,6-dimethylpyridin-4(1H)-one]: the IC50 was determined as 92 nM.

Regarding `CC#CCOc1cc(C(=O)Cn2c(C)cc(=O)cc2C)ccc1OC` [Example 29, 1-(2-(3-(but-2-yn-1-yloxy)-4-methoxyphenyl)-2-oxoethyl)-2,6-dimethylpyridin-4(1H)-one], the IC50 turned out to be 93 nM.

On to `COc1ccc(C(=O)Cn2c(C)cc(=O)cc2C)cc1OC1COC1` [Example 30, 1-(2-(3-(oxacyclobutan-3-yl-oxy)-4-methoxyphenyl)-2-oxoethyl)-2,6-dimethylpyridin-4(1H)-one], for which the IC50 was 116 nM.

Take `COc1ccc(C(=O)Cn2c(C)cc(=O)cc2C)cc1OC1CCCO1` (stereo not drawn) [Example 31, 1-(2-(3-(tetrahydrofuran-2-yl)oxy-4-methoxyphenyl)-2-oxoethyl)-2,6-dimethylpyridin-4(1H)-one]: the IC50 was 26 nM.

Take `COc1ccc(C(=O)Cn2c(C)cc(=O)cc2C)cc1OCSC` [Example 32, 1-(2-(3-methylthiomethoxy-4-methoxyphenyl)-2-oxoethyl)-2,6-dimethylpyridin-4(1H)-one]: the IC50 was 13.9 nM.

With `COc1ccc(C(=O)Cn2c(C)cc(=O)cc2C)cc1OC[S+](C)[O-]` (stereo not drawn) [Example 33, 1-(2-(3-methylsulfoxidemethoxy-4-methoxyphenyl)-2-oxoethyl)-2,6-dimethylpyridin-4(1H)-one], the IC50 turned out to be 830 nM.

For `COc1ccc(C(=O)Cn2c(C)cc(=O)cc2C)cc1OCS(C)(=O)=O` [Example 34, 1-(2-(3-methylsulfonemethoxy-4-methoxyphenyl)-2-oxoethyl)-2,6-dimethylpyridin-4(1H)-one], the IC50 came out at 420 nM.

On to `COc1ccc(C(=O)Cn2c(C)cc(=O)cc2C)cc1OCCSC` [Example 35, 1-(2-(3-methylthioethoxy-4-methoxyphenyl)-2-oxoethyl)-2,6-dimethylpyridin-4(1H)-one], for which the IC50 turned out to be 32 nM.

Take `COc1ccc(C(=O)Cn2c(C)cc(=O)cc2C)cc1OCC[S+](C)[O-]` (stereo not drawn) [Example 36, 1-(2-(3-methylsulfoxideethoxy-4-methoxyphenyl)-2-oxoethyl)-2,6-dimethylpyridin-4(1H)-one]: the IC50 was 1250 nM.

As for `COc1ccc(C(=O)Cn2c(C)cc(=O)cc2C)cc1OCCS(C)(=O)=O` [Example 37, 1-(2-(3-methylsulfoneethoxy-4-methoxyphenyl)-2-oxoethyl)-2,6-dimethylpyridin-4(1H)-one], the IC50 amounted to 510 nM.

Consider `COc1ccc(/C(Cn2c(C)cc(=O)cc2C)=N/O)cc1OCC1CC1` [Example 38-1, (Z)-1-(2-(3-cyclopropylmethoxy-4-methoxyphenyl)-2-(hydroxyimido)ethyl)-2,6-dimethylpyridin-4(1H)-one], for which the IC50 is 1090 nM.

As for `COc1ccc(/C(Cn2c(C)cc(=O)cc2C)=N\O)cc1OCC1CC1` [Example 38-2, (E)-1-(2-(3-cyclopropylmethoxy-4-methoxyphenyl)-2-(hydroxyimido)ethyl)-2,6-dimethylpyridin-4(1H)-one], the IC50 stood at 71 nM.

For `CO/N=C(\Cn1c(C)cc(=O)cc1C)c1ccc(OC)c(OCC2CC2)c1` [Example 39, (Z)-1-(2-(3-cyclopropylmethoxy-4-methoxyphenyl)-2-(methoxyimido)ethyl)-2,6-dimethylpyridin-4(1H)-one], the IC50 worked out at 1070 nM.

For the molecule `CO/N=C(/Cn1c(C)cc(=O)cc1C)c1ccc(OC)c(OCC2CC2)c1` [Example 40, (E)-1-(2-(3-cyclopropylmethoxy-4-methoxyphenyl)-2-(hydroxymethylimido)ethyl)-2,6-dimethylpyridin-4(1H)-one], the IC50 amounted to 6.8 nM.

As for `COc1ccc(/C(Cn2c(C)cc(=O)cc2C)=N/OCSC)cc1OCC1CC1` [Example 41, (Z)-1-(2-(3-cyclopropylmethoxy-4-methoxyphenyl)-2-(methylthiomethoxyimido)ethyl)-2,6-dimethylpyridin-4(1H)-one], the IC50 was 1.22 nM.

For the molecule `COc1ccc(/C(Cn2c(C)cc(=O)cc2C)=N\OCSC)cc1OCC1CC1` [Example 42, (E)-1-(2-(3-cyclopropylmethoxy-4-methoxyphenyl)-2-(methylthiomethoxyimido)ethyl)-2,6-dimethylpyridin-4(1H)-one], the IC50 came to 8.2 nM.

On to `COc1ccc(/C(Cn2c(C)cc(=O)cc2C)=N/OC[S+](C)[O-])cc1OCC1CC1` (stereo not drawn) [Example 43, (Z)-1-(2-(3-cyclopropylmethoxy-4-methoxyphenyl)-2-(methylsulfoxidemethoxyimido)ethyl)-2,6-dimethylpyridin-4(1H)-one], for which the IC50 was found to be 4.9 nM.

As to `COc1ccc(/C(Cn2c(C)cc(=O)cc2C)=N/OCS(C)(=O)=O)cc1OCC1CC1` [Example 44, (Z)-1-(2-(3-cyclopropylmethoxy-4-methoxyphenyl)-2-(methylsulfonemethoxyimido)ethyl)-2,6-dimethylpyridin-4(1H)-one], the IC50 is 30 nM.

On to `COc1ccc(C(=O)Cn2ccc(=O)cc2)cc1OCC1CC1` [Example 45, 1-(2-(3-cyclopropylmethoxy-4-methoxyphenyl)-2-oxoethyl)pyridin-4(1H)-one], for which the IC50 came out at 170 nM.

Regarding `COc1ccc(C(=O)Cn2ccc(=O)cc2C)cc1OCC1CC1` [Example 46, 1-(2-(3-cyclopropylmethoxy-4-methoxyphenyl)-2-oxoethyl)-2-methylpyridin-4(1H)-one], the IC50 amounted to 25 nM.

Take `COc1ccc(C(=O)Cn2ccc(=O)cc2Cl)cc1OCC1CC1` [Example 47, 1-(2-(3-cyclopropylmethoxy-4-methoxyphenyl)-2-oxoethyl)-2-chloropyridin-4(1H)-one]: the IC50 was 7.1 nM.

In the case of `COc1ccc(C2CC2n2c(C)cc(=O)cc2C)cc1OCC1CC1` (stereo not drawn) [Example 48, 1-(2-(3-cyclopropylmethoxy-4-methoxyphenyl)cyclopropyl)-2,6-dimethylpyridin-4(1H)-one], the IC50 is 420 nM.

Take `Cc1cc(=O)cc(C)n1CC(=O)c1ccc(OC(F)F)c(OCC2CC2)c1` [Example 49, 1-(2-(3-cyclopropylmethoxy-4-difluoromethoxyphenyl)-2-oxoethyl)-2,6-dimethylpyridin-4(1H)-one]: the IC50 was 2.9 nM.

Regarding `COc1ccc(/C=C/n2ccc(=O)cc2)cc1OCC1CC1` [Example 50, (E)-1-(3-cyclopropylmethoxy-4-methoxystyryl)pyridin-4(1H)-one], the IC50 was determined as 180 nM.

As for `COc1ccc(/C=C/n2ccc(=O)cc2C)cc1OCC1CC1` [Example 51, (E)-1-(3-cyclopropylmethoxy-4-methoxystyryl)-2-methylpyridin-4(1H)-one], the IC50 was 57 nM.

Turning to `CCCOc1cc(/C=C/n2c(C)cc(=O)cc2C)ccc1OC` [Example 53, (E)-1-(3-propoxy-4-methoxystyryl)-2,6-dimethylpyridin-4(1H)-one], the IC50 was 15 nM.

Consider `COc1ccc(/C=C/n2c(C)cc(=O)cc2C)cc1OC(C)C` [Example 54, (E)-1-(3-isopropoxy-4-methoxystyryl)-2,6-dimethylpyridin-4(1H)-one], for which the concentration for half-maximal inhibition (IC50) stood at 26 nM.

For `CCCCOc1cc(/C=C/n2c(C)cc(=O)cc2C)ccc1OC` [Example 55, (E)-1-((3-n-butoxy-4-methoxy)-styryl)-2,6-dimethylpyridin-4(1H)-one], the IC50 came to 54 nM.

Turning to `COc1ccc(/C=C/n2c(C)cc(=O)cc2C)cc1OCC(C)C` [Example 56, (E)-1-(3-iso-butoxy-4-methoxystyryl)-2,6-dimethylpyridin-4(1H)-one], the IC50 was determined as 16 nM.

On to `COc1ccc(/C=C/n2c(C)cc(=O)cc2C)cc1OCC(C)(C)C` [Example 57, (E)-1-((3-neopentyloxy-4-methoxy)-styryl)-2,6-dimethylpyridin-4(1H)-one], for which the IC50 amounted to 100 nM.

On to `COc1ccc(/C=C/n2c(C)cc(=O)cc2C)cc1OC1CC1` [Example 58, (E)-1-(3-cyclopropyloxy-4-methoxystyryl)-2,6-dimethylpyridin-4(1H)-one], for which the IC50 stood at 5.5 nM.

Regarding `COc1ccc(/C=C/n2c(C)cc(=O)cc2C)cc1OCC1CC1` [Example 59, (E)-1-(3-cyclopropylmethoxy-4-methoxystyryl)-2,6-dimethylpyridin-4(1H)-one], the IC50 stood at 5.1 nM.

As to `COc1ccc(CCn2c(C)cc(=O)cc2C)cc1OCC1CC1` [Example 60, (E)-1-(3-cyclopropylmethoxy-4-methoxyphenethyl)-2,6-dimethylpyridin-4(1H)-one], the IC50 was 1200 nM.

For the molecule `COc1ccc(/C=C/n2c(C)cc(=O)cc2C)cc1OC1CCC1` [Example 61, (E)-1-(3-cyclobutyloxy-4-methoxy-styryl)-2,6-dimethylpyridin-4(1H)-one], the IC50 worked out at 6.2 nM.

Regarding `COc1ccc(/C=C/n2c(C)cc(=O)cc2C)cc1OC1CCCC1` [Example 62, (E)-1-((3-cyclopentyloxy-4-methoxy)-styryl)-2,6-dimethylpyridin-4(1H)-one], the IC50 came out at 10.2 nM.
